# Data reported in PubChem BioAssay (NCI).
#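 Five concentrations, 48 hours, 96-well plates. TGI is the concentration that stops growth completely.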
# Assays:
# Assay in all cases: NCI tumour cell line growth inhibition, 48 h
# [1] = system: SK-MEL-5 melanoma
# [2] = system: 786-0 renal
# [3] = system: OVCAR-3 ovarian
# [4] = system: SF-268 CNS
# [5] = system: SF-539 CNS
# [6] = system: IGROV1 ovarian
# [7] = system: SK-MEL-2 melanoma
# [8] = system: K-562 leukemia
# [9] = system: SK-OV-3 ovarian
# [10] = system: MALME-3M melanoma
# [11] = system: SN12C renal
# [12] = system: OVCAR-8 ovarian
Compound,TGI [1] [µM],TGI [2] [µM],TGI [3] [µM],TGI [4] [µM],TGI [5] [µM],TGI [6] [µM],TGI [7] [µM],TGI [8] [µM],TGI [9] [µM],TGI [10] [µM],TGI [11] [µM],TGI [12] [µM]
CC1=NN(c2ccc(S(=O)(=O)O)cc2)C2(C1)SCC(=O)N2c1nc2ccccc2s1 (configuration not stated),> 100,> 100,> 100,> 100,> 100,> 100,> 100,> 100,> 100,> 100,> 100,> 100
CCOC(=O)/C=C(/C(=O)OCC)n1ccc(N)nc1=O,> 100,> 100,> 100,> 100,> 100,> 100,> 100,> 100,> 100,> 100,> 100,> 100
N#C/C(=C\n1ccc(=O)[nH]c1=S)C(N)=O,> 100,> 100,0.673,> 100,> 100,> 100,> 100,> 100,> 100,> 100,> 100,> 100
O=C(O)c1ccc(S(=O)(=O)c2ccccc2[N+](=O)[O-])cc1,> 10,> 10,> 10,> 10,> 10,> 10,> 10,> 10,> 10,> 10,> 10,> 10
O=c1oc2ccccc2c(Nc2ccc3c(c2)Oc2ccccc2O3)c1[N+](=O)[O-],45.3,38.8,64.2,48.4,36.4,48.9,34.5,> 100,40.9,53.3,> 100,37.6
CC(=O)N1N=C(c2ccc3ccccc3c2O)CC1C(=O)c1ccco1 (configuration not stated),> 100,> 100,> 100,> 100,83.8,> 100,52.8,41,> 100,> 100,> 100,> 100
